# From patent US9000007B2, “5-benzylaminomethyl-6-aminopyrazolo [3, 4 -B] pyridine derivatives as cholesteryl ester-transfer protein (CETP) inhibitors useful for the treatment of atherosclerosis” (Dr. Reddy's Laboratories, Ltd., priority 2011, dated 2015)
# Molecular target: T1, recombinant CETP enzyme (rCETP) (Homo sapiens, UniProt P11597)
# T1 construct: purchased ROAR Biomedicals, USA
# T1 sequence (P11597 18-493): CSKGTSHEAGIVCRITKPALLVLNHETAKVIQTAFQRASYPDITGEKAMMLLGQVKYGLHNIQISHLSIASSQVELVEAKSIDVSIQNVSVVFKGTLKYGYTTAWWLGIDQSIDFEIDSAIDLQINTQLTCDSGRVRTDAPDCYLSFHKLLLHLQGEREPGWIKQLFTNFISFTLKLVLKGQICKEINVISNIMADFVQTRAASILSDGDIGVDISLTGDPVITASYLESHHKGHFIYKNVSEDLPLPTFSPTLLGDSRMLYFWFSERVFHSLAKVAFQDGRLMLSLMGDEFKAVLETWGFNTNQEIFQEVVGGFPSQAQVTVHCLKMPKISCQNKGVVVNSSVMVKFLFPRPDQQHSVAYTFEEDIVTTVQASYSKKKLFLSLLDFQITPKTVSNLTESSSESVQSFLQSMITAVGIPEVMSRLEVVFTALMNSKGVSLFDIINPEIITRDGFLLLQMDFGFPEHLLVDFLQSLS
# Experiment: In vitro CETP inhibition assay, fluorometric kit (ROAR Biomedicals)
# Format: biochemical
# Settings: rCETP 50 ng, 37° C. for 90 minutes, fluorescence Ex 492 nm / Em 516 nm
# From the text: Determination of in Vitro CETP Activity Using Fluorometric Technique
# An in vitro cholesteryl ester transfer protein inhibition (CETP) assay using a commercially available fluorometric assay kit from ROAR Biomedicals, USA was used to measure the CETP inhibition activity of the compounds of this application. This assay kit uses a donor molecule containing a fluorescent self-quenched neutral lipid that is transferred to an acceptor molecule in the presence of recombinant CETP enzyme (rCETP). The CETP-mediated transfer of the fluorescent neutral lipid to the acceptor molecule results in an increase in fluorescence (Excitation: 492 nm; Emission: 516 nm).
# 20 mM stock solutions of compounds were prepared in 100% DMSO and further dilutions were made such that the final concentration of DMSO in the reaction mix was 1%. […] The assay was performed in 96 well microplates and in each well, the reaction mixture contained 190 μl of assay buffer (150 mM NaCl, 10 mM Tris and 2 mM EDTA, pH-7.4), 4 μl of donor particle, 4 μl of acceptor particle, rCETP (50 ng) and 2 μl of test compound at varying final concentration of 0.1, 1, 10, 100, 1000 & 10000 nM. Two control reactions were performed, one without test compound (positive control) and the other without the rCETP (negative control). The reactions were incubated at 37° C. for 90 minutes and the reaction plate was transferred to a PCR machine MX3005P and the fluorescence units (FLU) were quantified (Excitation: 492 nm; Emission: 516 nm).
# The negative control values were subtracted from the positive control as well as all the test values to correct for background fluorescence. The percentage inhibition of activity was calculated by using the following equation: % Inhibition of CETP activity=[100−(100×(FLU in test/FLU in positive control))].
# The half maximal inhibitory concentration (IC50) was determined using the BIOGRAPH software (version no. 3.3).
row,Structure (SMILES),IC50 [µM]
1,"Cc1nn(C(C)(C)C)c2nc(N(CC3CC3)CC3CC3)c(CN(Cc3cc(C(F)(F)F)cc(C(F)(F)F)c3)c3ncc(NC(=O)C(C)C)cn3)cc12 [Example 1, N-(2-(((6-(bis(cyclopropylmethyl)amino)-1-(tert-butyl)-3-methyl-1H-pyrazolo[3,4-b]pyridin-5-yl)methyl)(3,5-bis(trifluoromethyl)benzyl)amino)pyrimidin-5-yl) isobutyramide]",0.064
2,"Cc1nn(C(C)(C)C)c2nc(N(CC3CC3)CC3CC3)c(CN(Cc3cc(C(F)(F)F)cc(C(F)(F)F)c3)c3ccc(C4CC4)cn3)cc12 [Example 2, 5-(((3,5-Bis(trifluoromethyl)benzyl)(5-cyclopropylpyridin-2-yl)amino)methyl)-1-(tert-butyl)-N,N-bis(cyclopropylmethyl)-3-methyl-1H-pyrazolo[3,4-b]pyridin-6-amine]",0.078
3,"Cc1nn(C(C)(C)C)c2nc(N(CC3CC3)CC3CC3)c(CN(Cc3cc(C(F)(F)F)cc(C(F)(F)F)c3)c3ncc(NC(=O)C4CC4)cn3)cc12 [Example 3, N-(2-(((6-(bis(cyclopropylmethyl)amino)-1-(tert-butyl)-3-methyl-1H-pyrazolo[3,4-b]pyridin-5-yl)methyl)(3,5-bis(trifluoromethyl)benzyl)amino)pyrimidin-5-yl)cyclopropanecarboxamide]",0.035
4,"CC(=O)c1cnc(N(Cc2cc(C(F)(F)F)cc(C(F)(F)F)c2)Cc2cc3c(C)nn(C)c3nc2N(CC2CC2)CC2CC2)nc1 [Example 4, 1-(2-(((6-(bis(cyclopropylmethyl)amino)-1,3-dimethyl-1H-pyrazolo[3,4-b]pyridin-5-yl)methyl)(3,5-bis(trifluoromethyl)benzyl)amino)pyrimidin-5-yl)ethanone]",0.0057
5,"CC(=O)c1cnc(N(Cc2cc(C(F)(F)F)cc(C(F)(F)F)c2)Cc2cc3c(C)nn(C(C)(C)C)c3nc2N(CC2CC2)CC2CC2)nc1 [Example 5, 1-(2-(((6-(bis(cyclopropylmethyl)amino)-1-(tert-butyl)-3-methyl-1H-pyrazolo[3,4-b]pyridin-5-yl)methyl)(3,5-bis(trifluoromethyl)benzyl)amino)pyrimidin-5-yl)ethanone]",0.0415
6,Cc1nn(C(C)(C)C)c2nc(N(CC3CC3)CC3CC3)c(CN(Cc3cc(C(F)(F)F)cc(C(F)(F)F)c3)c3ncc(-c4ccon4)cn3)cc12 [Example 7],0.0094
7,"Cc1nn(C(C)(C)C)c2nc(N(CC3CC3)CC3CC3)c(CN(Cc3cc(C(F)(F)F)cc(C(F)(F)F)c3)c3ncc(-c4cc[nH]n4)cn3)cc12 [Example 8, 5-(((5-(1H-pyrazol-3-yl)pyrimidin-2-yl)(3,5-bis(trifluoromethyl)benzyl)amino)methyl)-1-(tert-butyl)-N,N-bis(cyclopropylmethyl)-3-methyl-1H-pyrazolo[3,4-b]pyridin-6-amine]",0.027
8,"Cc1nn(C(C)(C)C)c2nc(N(CC3CC3)CC3CC3)c(CN(Cc3cc(C(F)(F)F)cc(C(F)(F)F)c3)c3ncc(-c4ccn(C)n4)cn3)cc12 [Example 9, 5-(((3,5-Bis(trifluoromethyl)benzyl)(5-(1-methyl-1H-pyrazol-3-yl)pyrimidin-2-yl)amino)methyl)-1-(tert-butyl)-N,N-bis(cyclopropylmethyl)-3-methyl-1H-pyrazolo[3,4-b]pyridin-6-amine]",0.1
9,"Cc1nn(C(C)(C)C)c2nc(N(CC3CC3)CC3CC3)c(CN(Cc3cc(C(F)(F)F)cc(C(F)(F)F)c3)c3ncc(C#N)cn3)cc12 [Example 10, 2-(((6-(bis(cyclopropylmethyl)amino)-1-(tert-butyl)-3-methyl-1H-pyrazolo[3,4-b]pyridin-5-yl)methyl)(3,5-bis(trifluoromethyl)benzyl)amino)pyrimidine-5-carbonitrile]",1.25
10,"Cc1nn(C(C)(C)C)c2nc(N(CC3CC3)CC3CC3)c(CN(Cc3cc(C(F)(F)F)cc(C(F)(F)F)c3)c3ncc(C(N)=O)cn3)cc12 [Example 11, 2-(((6-(bis(cyclopropylmethyl)amino)-1-(tert-butyl)-3-methyl-1H-pyrazolo[3,4-b]pyridin-5-yl)methyl)(3,5-bis(trifluoromethyl)benzyl)amino)pyrimidine-5-carboxamide]",0.018
11,"Cc1nn(C(C)(C)C)c2nc(N(CC3CC3)CC3CC3)c(CN(Cc3cc(C(F)(F)F)cc(C(F)(F)F)c3)c3ncc(C(=O)N(C)C)cn3)cc12 [Example 12, 2-(((6-(bis(cyclopropylmethyl)amino)-1-(tert-butyl)-3-methyl-1H-pyrazolo[3,4-b]pyridin-5-yl)methyl)(3,5-bis(trifluoromethyl)benzyl)amino)-N,N-dimethylpyrimidine-5-carboxamide]",0.215
12,"Cc1nn(C(C)(C)C)c2nc(N(CC3CC3)CC3CC3)c(CN(Cc3cc(C(F)(F)F)cc(C(F)(F)F)c3)c3ncc(N4CCOC4=O)cn3)cc12 [Example 13, 3-(2-(((6-(bis(cyclopropylmethyl)amino)-1-(tert-butyl)-3-methyl-1H-pyrazolo[3,4-b]pyridin-5-yl)methyl)(3,5-bis(trifluoromethyl)benzyl)amino)pyrimidin-5-yl)oxazolidin-2-one]",0.01
13,"Cc1nn(C(C)(C)C)c2nc(N(CC3CC3)CC3CC3)c(CN(Cc3cc(C(F)(F)F)cc(C(F)(F)F)c3)c3ncc(N4CCOCC4)cn3)cc12 [Example 14, 5-(((3,5-Bis(trifluoromethyl)benzyl)(5-morpholinopyrimidin-2-yl)amino)methyl)-1-(tert-butyl)-N,N-bis(cyclopropylmethyl)-3-methyl-1H-pyrazolo[3,4-b]pyridin-6-amine]",0.046
14,"Cc1nn(C)c2nc(N(CC3CC3)CC3CC3)c(CN(Cc3cc(C(F)(F)F)cc(C(F)(F)F)c3)c3ncc(N4CCOCC4)cn3)cc12 [Example 15, 5-(((3,5-bis(trifluoromethyl)benzyl)(5-morpholinopyrimidin-2-yl)amino)methyl)-N,N-bis(cyclopropylmethyl)-1,3-dimethyl-1H-pyrazolo[3,4-b]pyridin-6-amine]",0.049
15,"Cc1nn(C(C)(C)C)c2nc(N(CC3CC3)CC3CC3)c(CN(Cc3cc(C(F)(F)F)cc(C(F)(F)F)c3)c3ncc(N4CCCC4=O)cn3)cc12 [Example 16, 1-(2-(((6-(Bis(cyclopropylmethyl)amino)-1-(tert-butyl)-3-methyl-1H-pyrazolo[3,4-b]pyridin-5-yl)methyl)(3,5-bis(trifluoromethyl)benzyl)amino)pyrimidin-5-yl)pyrrolidin-2-one]",0.056
16,"Cc1nc(N(Cc2cc(C(F)(F)F)cc(C(F)(F)F)c2)Cc2cc3c(C)nn(C(C)(C)C)c3nc2N(CC2CC2)CC2CC2)ncc1C(=O)O [Example 18, 2-(((6-(Bis(cyclopropylmethyl)amino)-1-(tert-butyl)-3-methyl-1H-pyrazolo[3,4-b]pyridin-5-yl)methyl)(3,5-bis(trifluoromethyl)benzyl)amino)-4-methylpyrimidine-5-carboxylic acid]",0.054
17,"CCOC(=O)c1cnc(N(Cc2cc(C(F)(F)F)cc(C(F)(F)F)c2)Cc2cc3c(C)nn(C(C)(C)C)c3nc2N(CC2CC2)CC2CC2)nc1 [Example 19, Ethyl 2-(((6-(bis(cyclopropylmethyl)amino)-1-(tert-butyl)-3-methyl-1H-pyrazolo[3,4-b]pyridin-5-yl)methyl)(3,5-bis(trifluoromethyl)benzyl)amino)pyrimidine-5-carboxylate]",0.07
18,"Cc1nn(C(C)(C)C)c2nc(N(CC3CC3)CC3CC3)c(CN(Cc3cc(C(F)(F)F)cc(C(F)(F)F)c3)c3ncc(C(=O)O)cn3)cc12 [Example 20, 2-(((6-(Bis(cyclopropylmethyl)amino)-1-(tert-butyl)-3-methyl-1H-pyrazolo[3,4-b]pyridin-5-yl)methyl)(3,5-bis(trifluoromethyl)benzyl)amino)pyrimidine-5-carboxylic acid]",0.061
